Starred links: 1 amine or outer side, 2 acyl side, 3 side chain; linkers in the order of their positions; H or OH if unused. Positions of bridges follow the written chain, without caps; N, C: chain ends. Non-standard residues stand in square brackets, D forms with d. Residues, ends and D or L forms follow the SMILES beside them. Groups on a side chain read outwards from the residue. *: point of attachment. Trp(1-CH2CO2Me) = COC(=O)Cn1cc(C[C@H](N)C(=O)O)c2ccccc21; Trp(1-CH2COOH) = N[C@@H](Cc1cn(CC(=O)O)c2ccccc12)C(=O)O; X41 = N=C(NCC[C@H](N[*:1])C(=O)[*:2])c1ccccc1; X40 = N=C(NC[C@H](N[*:1])C(=O)[*:2])c1ccccc1; NH(2-CF3-phenyl) = FC(F)(F)c1ccccc1N*; Hyp = O=C(O)[C@@H]1C[C@@H](O)CN1; X14 = Cc1c[nH]c2c(NC(=S)*)cccc12; X10 = S=C(Nc1ccc(N2CCOCC2)cc1)*; X44 = FC(F)(F)c1ccc(NC(=S)*)cc1; X78 = S=C(Nc1c(Cl)cc(Cl)cc1Cl)*; X11 = S=C(Nc1ccccc1-c1ccccc1)*; X29 = c1ccc(Oc2ccc(N*)cc2)cc1; NMeNle = CCCC[C@H](NC)C(=O)O; X20 = O=C(Oc1ccc2ccccc2c1)*; X59 = S=C(Nc1ccc2nsnc2c1)*; X6 = CCCCCCCOc1ccc(N*)cc1; NMeA = CN[C@@H](C)C(=O)O; Dab = NCC[C@H](N)C(=O)O; X39 = CCCCOc1ccc(N*)cc1; Dap = NC[C@H](N)C(=O)O; CO = O=C([*:1])[*:2]; NHPh = c1ccc(N*)cc1
The molecules below were run against T1, PD-1/PD-L1 (Homo sapiens, UniProt Q9NZQ7) (assay: PD-1/PD-L1 Homogenous Time-Resolved Fluorescence (HTRF) binding assay). Details: not given.
T1 construct: TVMV protease site linker (C); made in house; host or cells: HEK293T cells
T1 sequence (Q9NZQ7 18-239): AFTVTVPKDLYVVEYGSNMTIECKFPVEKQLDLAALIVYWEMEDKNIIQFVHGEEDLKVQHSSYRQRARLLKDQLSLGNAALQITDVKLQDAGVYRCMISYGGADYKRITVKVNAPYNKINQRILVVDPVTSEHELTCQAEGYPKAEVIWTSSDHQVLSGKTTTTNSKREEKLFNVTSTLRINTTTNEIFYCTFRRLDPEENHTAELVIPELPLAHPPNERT
In short: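 HTRF read-out using europium cryptate anti-Ig (1 nM) and APC anti-His (20 nM) on extracellular-domain fusion proteins in dPBS/0.1% BSA/0.05% Tween-20. Inhibitor first incubated 15 min with 10 nM PD-L1-His, followed by 20 nM PD-1-Ig for another 15 min.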

SMILES	IC50
CCCC[C@H]1C(=O)N(C)[C@@H](CCCC)C(=O)N[C@@H](CC(C)C)C(=O)N[C@H](C(=O)NCC(N)=O)CSCC(=O)N[C@@H](Cc2ccc(O)cc2)C(=O)N(C)[C@@H](C)C(=O)N[C@@H](CC(N)=O)C(=O)N2CCC[C@H]2C(=O)N[C@@H](CNC(=O)Oc2ccc3ccccc3c2)C(=O)N[C@@H](CC(C)C)C(=O)N2C[C@H](O)C[C@H]2C(=O)N[C@@H](Cc2c[nH]c3ccccc23)C(=O)N[C@@H](CCNC(=O)Oc2ccc3ccccc3c2)C(=O)N[C@@H](Cc2cn(CC(=O)O)c3ccccc23)C(=O)N1C [Example 3037] ({CH2CO}-Y[NMeA]NP[Dap](X20)L[Hyp]W[Dab](X20)[Trp(1-CH2COOH)][NMeNle][NMeNle]LCG-NH2; thioether N-14)	5 nM

Same assay, conditions: PD-L1-His 10 nM pre-incubated with inhibitor, PD-1-Ig 20 nM; read-out: HTRF IC50

SMILES	IC50
CCCCCCCOc1ccc(NC(=O)NC[C@@H]2NC(=O)[C@@H]3CCCN3C(=O)[C@H](CC(N)=O)NC(=O)[C@H](C)N(C)C(=O)[C@H](Cc3ccc(O)cc3)NC(=O)CSC[C@@H](C(=O)NCC(N)=O)NC(=O)[C@H](CC(C)C)NC(=O)[C@H](CCCC)N(C)C(=O)[C@H](CCCC)N(C)C(=O)[C@H](Cc3cn(CC(=O)O)c4ccccc34)NC(=O)[C@H](CCN)NC(=O)[C@H](Cc3c[nH]c4ccccc34)NC(=O)[C@@H]3C[C@@H](O)CN3C(=O)[C@H](CC(C)C)NC2=O)cc1 [Example 1089] ({CH2CO}-Y[NMeA]NP[Dap]([CO-X6])L[Hyp]W[Dab][Trp(1-CH2COOH)][NMeNle][NMeNle]LCG-NH2; thioether N-14)	12 nM
CCCC[C@H]1C(=O)N(C)[C@@H](CCCC)C(=O)N[C@@H](CC(C)C)C(=O)N[C@H](C(=O)NCC(N)=O)CSCC(=O)N[C@@H](Cc2ccc(O)cc2)C(=O)N(C)[C@@H](C)C(=O)N[C@@H](CC(N)=O)C(=O)N2CCC[C@H]2C(=O)N[C@@H](CNC(=O)Nc2ccc(Oc3ccccc3)cc2)C(=O)N[C@@H](CC(C)C)C(=O)N2C[C@H](O)C[C@H]2C(=O)N[C@@H](Cc2c[nH]c3ccccc23)C(=O)N[C@@H](CCNC(=O)Nc2ccc(Oc3ccccc3)cc2)C(=O)N[C@@H](Cc2cn(CC(=O)O)c3ccccc23)C(=O)N1C [Example 1023] ({CH2CO}-Y[NMeA]NP[Dap]([CO-X29])L[Hyp]W[Dab]([CO-X29])[Trp(1-CH2COOH)][NMeNle][NMeNle]LCG-NH2; thioether N-14)	32 nM
CCCC[C@H]1C(=O)N(C)[C@@H](CCCC)C(=O)N[C@@H](CC(C)C)C(=O)N[C@H](C(=O)NCC(N)=O)CSCC(=O)N[C@@H](Cc2ccc(O)cc2)C(=O)N(C)[C@@H](C)C(=O)N[C@@H](CC(N)=O)C(=O)N2CCC[C@H]2C(=O)N[C@@H](CNC(=S)Nc2cccc3c(C)c[nH]c23)C(=O)N[C@@H](CC(C)C)C(=O)N2C[C@H](O)C[C@H]2C(=O)N[C@@H](Cc2c[nH]c3ccccc23)C(=O)N[C@@H](CCN)C(=O)N[C@@H](Cc2cn(CC(=O)O)c3ccccc23)C(=O)N1C [Example 3020] ({CH2CO}-Y[NMeA]NP[Dap](X14)L[Hyp]W[Dab][Trp(1-CH2COOH)][NMeNle][NMeNle]LCG-NH2; thioether N-14)	2.5 nM
CCCC[C@H]1C(=O)N(C)[C@@H](CCCC)C(=O)N[C@@H](CC(C)C)C(=O)N[C@H](C(=O)NCC(N)=O)CSCC(=O)N[C@@H](Cc2ccc(O)cc2)C(=O)N(C)[C@@H](C)C(=O)N[C@@H](CC(N)=O)C(=O)N2CCC[C@H]2C(=O)N[C@@H](CNC(=N)c2ccccc2)C(=O)N[C@@H](CC(C)C)C(=O)N2C[C@H](O)C[C@H]2C(=O)N[C@@H](Cc2c[nH]c3ccccc23)C(=O)N[C@@H](CCNC(=N)c2ccccc2)C(=O)N[C@@H](Cc2cn(CC(=O)O)c3ccccc23)C(=O)N1C [Example 1019] ({CH2CO}-Y[NMeA]NP[X40]L[Hyp]W[X41][Trp(1-CH2COOH)][NMeNle][NMeNle]LCG-NH2; thioether N-14)	3.4 nM
CCCC[C@H]1C(=O)N(C)[C@@H](CCCC)C(=O)N[C@@H](CC(C)C)C(=O)N[C@H](C(=O)NCC(N)=O)CSCC(=O)N[C@@H](Cc2ccc(O)cc2)C(=O)N(C)[C@@H](C)C(=O)N[C@@H](CC(N)=O)C(=O)N2CCC[C@H]2C(=O)N[C@@H](CNC(=S)Nc2c(Cl)cc(Cl)cc2Cl)C(=O)N[C@@H](CC(C)C)C(=O)N2C[C@H](O)C[C@H]2C(=O)N[C@@H](Cc2c[nH]c3ccccc23)C(=O)N[C@@H](CCN)C(=O)N[C@@H](Cc2cn(CC(=O)O)c3ccccc23)C(=O)N1C [Example 1109] ({CH2CO}-Y[NMeA]NP[Dap](X78)L[Hyp]W[Dab][Trp(1-CH2COOH)][NMeNle][NMeNle]LCG-NH2; thioether N-14)	1.5 nM
CCCC[C@H]1C(=O)N(C)[C@@H](CCCC)C(=O)N[C@@H](CC(C)C)C(=O)N[C@H](C(=O)NCC(N)=O)CSCC(=O)N[C@@H](Cc2ccc(O)cc2)C(=O)N(C)[C@@H](C)C(=O)N[C@@H](CC(N)=O)C(=O)N2CCC[C@H]2C(=O)N[C@@H](CNC(=O)Nc2ccccc2)C(=O)N[C@@H](CC(C)C)C(=O)N2C[C@H](O)C[C@H]2C(=O)N[C@@H](Cc2c[nH]c3ccccc23)C(=O)N[C@@H](CCN)C(=O)N[C@@H](Cc2cn(CC(=O)O)c3ccccc23)C(=O)N1C [Example 1056] ({CH2CO}-Y[NMeA]NP[Dap]([CO-NHPh])L[Hyp]W[Dab][Trp(1-CH2COOH)][NMeNle][NMeNle]LCG-NH2; thioether N-14)	3.1 nM
CCCCOc1ccc(NC(=O)NCC[C@@H]2NC(=O)[C@H](Cc3c[nH]c4ccccc34)NC(=O)[C@@H]3C[C@@H](O)CN3C(=O)[C@H](CC(C)C)NC(=O)[C@H](CNC(=O)Nc3ccc(OCCCC)cc3)NC(=O)[C@@H]3CCCN3C(=O)[C@H](CC(N)=O)NC(=O)[C@H](C)N(C)C(=O)[C@H](Cc3ccc(O)cc3)NC(=O)CSC[C@@H](C(=O)NCC(N)=O)NC(=O)[C@H](CC(C)C)NC(=O)[C@H](CCCC)N(C)C(=O)[C@H](CCCC)N(C)C(=O)[C@H](Cc3cn(CC(=O)O)c4ccccc34)NC2=O)cc1 [Example 1120] ({CH2CO}-Y[NMeA]NP[Dap]([CO-X39])L[Hyp]W[Dab]([CO-X39])[Trp(1-CH2COOH)][NMeNle][NMeNle]LCG-NH2; thioether N-14)	8.5 nM
CCCC[C@H]1C(=O)N(C)[C@@H](CCCC)C(=O)N[C@@H](CC(C)C)C(=O)N[C@H](C(=O)NCC(N)=O)CSCC(=O)N[C@@H](Cc2ccc(O)cc2)C(=O)N(C)[C@@H](C)C(=O)N[C@@H](CC(N)=O)C(=O)N2CCC[C@H]2C(=O)N[C@@H](CNC(=O)Nc2ccccc2C(F)(F)F)C(=O)N[C@@H](CC(C)C)C(=O)N2C[C@H](O)C[C@H]2C(=O)N[C@@H](Cc2c[nH]c3ccccc23)C(=O)N[C@@H](CCNC(=O)Nc2ccccc2C(F)(F)F)C(=O)N[C@@H](Cc2cn(CC(=O)O)c3ccccc23)C(=O)N1C [Example 1137] ({CH2CO}-Y[NMeA]NP[Dap]([CO-NH(2-CF3-phenyl)])L[Hyp]W[Dab]([CO-NH(2-CF3-phenyl)])[Trp(1-CH2COOH)][NMeNle][NMeNle]LCG-NH2; thioether N-14)	20 nM
CCCC[C@H]1C(=O)N(C)[C@@H](CCCC)C(=O)N[C@@H](CC(C)C)C(=O)N[C@H](C(=O)NCC(N)=O)CSCC(=O)N[C@@H](Cc2ccc(O)cc2)C(=O)N(C)[C@@H](C)C(=O)N[C@@H](CC(N)=O)C(=O)N2CCC[C@H]2C(=O)N[C@@H](CNC(=S)Nc2ccc3nsnc3c2)C(=O)N[C@@H](CC(C)C)C(=O)N2C[C@H](O)C[C@H]2C(=O)N[C@@H](Cc2c[nH]c3ccccc23)C(=O)N[C@@H](CCN)C(=O)N[C@@H](Cc2cn(CC(=O)O)c3ccccc23)C(=O)N1C [Example 3030] ({CH2CO}-Y[NMeA]NP[Dap](X59)L[Hyp]W[Dab][Trp(1-CH2COOH)][NMeNle][NMeNle]LCG-NH2; thioether N-14)	3 nM
CCCC[C@H]1C(=O)N(C)[C@@H](CCCC)C(=O)N[C@@H](CC(C)C)C(=O)N[C@H](C(=O)NCC(N)=O)CSCC(=O)N[C@@H](Cc2ccc(O)cc2)C(=O)N(C)[C@@H](C)C(=O)N[C@@H](CC(N)=O)C(=O)N2CCC[C@H]2C(=O)N[C@@H](CNC(=S)Nc2ccc(C(F)(F)F)cc2)C(=O)N[C@@H](CC(C)C)C(=O)N2C[C@H](O)C[C@H]2C(=O)N[C@@H](Cc2c[nH]c3ccccc23)C(=O)N[C@@H](CCN)C(=O)N[C@@H](Cc2cn(CC(=O)O)c3ccccc23)C(=O)N1C [Example 1034] ({CH2CO}-Y[NMeA]NP[Dap](X44)L[Hyp]W[Dab][Trp(1-CH2COOH)][NMeNle][NMeNle]LCG-NH2; thioether N-14)	3.5 nM
CCCC[C@H]1C(=O)N(C)[C@@H](CCCC)C(=O)N[C@@H](CC(C)C)C(=O)N[C@H](C(=O)NCC(N)=O)CSCC(=O)N[C@@H](Cc2ccc(O)cc2)C(=O)N(C)[C@@H](C)C(=O)N[C@@H](CC(N)=O)C(=O)N2CCC[C@H]2C(=O)N[C@@H](CNC(=S)Nc2ccc(N3CCOCC3)cc2)C(=O)N[C@@H](CC(C)C)C(=O)N2C[C@H](O)C[C@H]2C(=O)N[C@@H](Cc2c[nH]c3ccccc23)C(=O)N[C@@H](CCN)C(=O)N[C@@H](Cc2cn(CC(=O)OC)c3ccccc23)C(=O)N1C [Example 1053] ({CH2CO}-Y[NMeA]NP[Dap](X10)L[Hyp]W[Dab][Trp(1-CH2CO2Me)][NMeNle][NMeNle]LCG-NH2; thioether N-14)	3.2 nM
CCCC[C@H]1C(=O)N(C)[C@@H](CCCC)C(=O)N[C@@H](CC(C)C)C(=O)N[C@H](C(=O)NCC(N)=O)CSCC(=O)N[C@@H](Cc2ccc(O)cc2)C(=O)N(C)[C@@H](C)C(=O)N[C@@H](CC(N)=O)C(=O)N2CCC[C@H]2C(=O)N[C@@H](CNC(=S)Nc2ccccc2-c2ccccc2)C(=O)N[C@@H](CC(C)C)C(=O)N2C[C@H](O)C[C@H]2C(=O)N[C@@H](Cc2c[nH]c3ccccc23)C(=O)N[C@@H](CCN)C(=O)N[C@@H](Cc2cn(CC(=O)O)c3ccccc23)C(=O)N1C [Example 1085] ({CH2CO}-Y[NMeA]NP[Dap](X11)L[Hyp]W[Dab][Trp(1-CH2COOH)][NMeNle][NMeNle]LCG-NH2; thioether N-14)	3.8 nM

Source: patent US20220389061A1, “IMMUNOMODULATORS” (priority 2019, published 2022)
